Measurements as given in patent US11673889B2, “Substituted imidazo[4,5-c][1,8]naphthyridines as phosphodiesterase inhibitors” (Nanjing Zhengxiang Pharmaceuticals Co., Ltd., priority 2019, dated 2023).

Legend:
human soluble ENPP1 [1] = target: T1, human soluble ENPP1 (Homo sapiens, UniProt P22413); experiment: ENPP1 activity assay using p-Nitrophenyl-5′-TMP as a substrate; assay type: biochemical
T1 construct: 20 ng of human soluble ENPP1
T1 sequence (P22413 103-925 limits assumed): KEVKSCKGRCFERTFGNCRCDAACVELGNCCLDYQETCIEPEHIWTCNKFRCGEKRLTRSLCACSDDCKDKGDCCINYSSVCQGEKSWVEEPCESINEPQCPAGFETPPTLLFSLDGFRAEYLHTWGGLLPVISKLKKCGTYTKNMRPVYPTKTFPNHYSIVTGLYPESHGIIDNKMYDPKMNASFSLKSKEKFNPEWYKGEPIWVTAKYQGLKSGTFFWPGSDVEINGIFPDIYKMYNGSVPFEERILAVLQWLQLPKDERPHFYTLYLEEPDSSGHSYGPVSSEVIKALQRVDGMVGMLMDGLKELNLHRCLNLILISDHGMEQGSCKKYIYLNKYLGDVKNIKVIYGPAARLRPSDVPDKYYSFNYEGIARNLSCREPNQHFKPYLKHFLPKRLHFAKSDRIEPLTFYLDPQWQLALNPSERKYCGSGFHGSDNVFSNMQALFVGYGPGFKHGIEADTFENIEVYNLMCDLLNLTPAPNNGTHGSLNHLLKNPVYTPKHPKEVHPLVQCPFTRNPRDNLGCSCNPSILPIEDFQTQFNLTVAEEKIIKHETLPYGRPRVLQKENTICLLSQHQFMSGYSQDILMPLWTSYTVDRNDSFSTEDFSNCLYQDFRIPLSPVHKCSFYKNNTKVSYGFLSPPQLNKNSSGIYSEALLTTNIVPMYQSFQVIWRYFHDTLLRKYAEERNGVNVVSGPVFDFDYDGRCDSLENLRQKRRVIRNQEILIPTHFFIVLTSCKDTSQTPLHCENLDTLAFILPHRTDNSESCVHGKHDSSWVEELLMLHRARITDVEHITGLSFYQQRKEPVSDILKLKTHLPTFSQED
Procedure: ENPP1 is a transmembrane glycoprotein that hydrolyzes nucleotides and nucleotide derivatives with the formation of nucleotide-5′-monophosphates. ENPP1 hydrolyzes artificial phosphoric acid ester thymidine 5′monophosphate p-nitrophenyl ester (TMP-pNP) to nucleotide-5′-monophosphate and p-nitrophenol, which is a chromogenic product.
Load into a well with 20 ng of human soluble ENPP1 in 50 μL and incubate at room temperature with 25 μL inhibitor solution (4× Final Concentration) for 30 mins. Then, add 25 μL 2 mM TMP solution (2× Final Concentration) into the well, Incubate at RT for 1 hour.
(§1) The percent inhibition at each compound is calculated as follows: % inhibition=(ODMAX−ODCOMPOUND)/(ODMAX−ODMIN)*100. (MAX: absence of ENPP1 inhibitors control, MIN: blank control.)
The IC50 values for percent inhibition versus compound concentration were determined by fitting the inhibition curves using a four-parameter variable slope model in GraphPad Prism® 8.

human soluble ENPP1 [2] = target: T1, human soluble ENPP1; experiment: ENPP1 activity assay using p-Nitrophenyl-5′-AMP as a substrate; assay type: biochemical
Procedure: AMP-pNP can be used as substrate of ENPP-1. Its hydrolysis products were nucleotide-5′-monophosphate and p-nitrophcnol, which is also a chromogenic product. The amount of p-nitrophenol product formed is measured using its absorbance at 405 nm, which is directly proportional to enzyme activity.
Load into a well with […] of human soluble ENPP1 in 50 μL and incubate at room temperature with 25 μL inhibitor solution (4× Final Concentration) for 30 mins prior adding 25 μL 3 mM AMP solution (2× Final Concentration) into the well, Incubate at RT for 1 hour. The amounts of released p-nitrophenolate were measured by reading OD value at 405 nm.
as §1
(§2) The IC50 values for percent inhibition versus compound concentration are determined by fitting the inhibition curves using a four-parameter variable slope model in GraphPad Prism® 8.

ENPP-1, MDA-MB-231 cells = target: T2, ENPP-1, MDA-MB-231 cells (Homo sapiens, UniProt P22413); experiment: cell-based; settings: for inhibition at 20 µM: MDA-MB-231, read-out: % Inhibition (at 20 μM)
T2 sequence (P22413 1-925): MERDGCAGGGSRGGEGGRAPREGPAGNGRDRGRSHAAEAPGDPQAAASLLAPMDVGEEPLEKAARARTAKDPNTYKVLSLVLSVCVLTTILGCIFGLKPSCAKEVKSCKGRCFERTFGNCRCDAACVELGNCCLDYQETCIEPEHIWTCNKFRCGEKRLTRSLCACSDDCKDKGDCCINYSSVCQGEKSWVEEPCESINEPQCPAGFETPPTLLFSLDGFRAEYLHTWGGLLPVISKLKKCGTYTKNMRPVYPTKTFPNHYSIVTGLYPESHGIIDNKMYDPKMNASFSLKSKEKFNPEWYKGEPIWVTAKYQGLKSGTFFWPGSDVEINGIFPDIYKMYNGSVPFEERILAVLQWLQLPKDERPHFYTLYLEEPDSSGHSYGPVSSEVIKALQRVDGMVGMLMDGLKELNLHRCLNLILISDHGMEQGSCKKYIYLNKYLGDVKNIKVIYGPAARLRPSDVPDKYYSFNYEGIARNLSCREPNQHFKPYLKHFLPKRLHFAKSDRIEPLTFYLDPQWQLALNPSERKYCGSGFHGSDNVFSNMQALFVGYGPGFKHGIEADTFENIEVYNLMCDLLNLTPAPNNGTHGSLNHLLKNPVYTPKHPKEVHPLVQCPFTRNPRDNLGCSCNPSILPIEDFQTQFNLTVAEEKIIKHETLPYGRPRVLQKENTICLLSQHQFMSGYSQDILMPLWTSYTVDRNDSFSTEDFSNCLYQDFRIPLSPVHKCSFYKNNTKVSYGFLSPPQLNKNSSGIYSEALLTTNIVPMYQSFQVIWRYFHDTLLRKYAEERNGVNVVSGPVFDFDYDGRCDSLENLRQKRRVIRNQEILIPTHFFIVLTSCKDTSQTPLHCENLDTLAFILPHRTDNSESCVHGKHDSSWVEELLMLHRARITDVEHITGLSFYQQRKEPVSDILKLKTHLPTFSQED
Procedure: ENPP-1 were mainly expressed on the surface of cell membrane where it hydrolytes 2′3′-cGAMP to generate 5′-GMP and 5′-AMP. ENPP-1 also has the ability to hydrolyzes artificial phosphoric acid ester TMP-pNP to nucleotide-5′-monophosphate and p-nitrophcnol there, which is a chromogenic product.
8 point of different concentrations of each inhibitor were prepared with the final assay concentrations starting at 20 μM. 3× series dilution by DMEM medium without FBS was applied. Prior to adding inhibitors, 75000 cells per well were incubated at 37° C., 5% CO2 in DMEM for 24 hours. After removing the supernatant medium, 50 μL inhibitor solution was added into each well with cultured cells and incubate at 37° C., 5% CO2 for 60 minutes.
as §2

[3] = substrate TMP-pNP, 20 ng human soluble ENPP1, Tris buffer pH 9.5, read-out: TMP-pNP (IC50)

IC50 (human soluble ENPP1 [1]) | IC50 (human soluble ENPP1 [2]) | IC50 (ENPP-1, MDA-MB-231 cells) | inhibition at 20 µM (ENPP-1, MDA-MB-231 cells) | IC50 (human soluble ENPP1 [1]; [3]) | Compound
3.4 nM | 8.8 nM | 2700 nM | 74% | – | COc1ccc2c(n1)nc(C)c1nc(CO)n(Cc3cc(F)c(S(N)(=O)=O)cc3F)c12 [Compound 94, 2,5-difluoro-4-((2-(hydroxymethyl)-7-methoxy-4-methyl-1H-imidazo[4,5-c][1,8]naphthyridin-1-yl)methyl)benzenesulfonamide]
0.67 nM | 1.1 nM | 2400 nM | 76% | – | COc1ccc2c(ncc3[nH]c(=O)n([C@H](C)c4ccc(S(N)(=O)=O)cc4)c32)n1 [Compound 101, (R)-4-(1-(7-methoxy-2-oxo-2,3-dihydro-1H-imidazo[4,5-c][1,8]naphthyridin-1-yl)ethyl)benzenesulfonamide]
– | 3 nM | 3800 nM | 62% | 0.6 nM | COc1ccc2c(ncc3[nH]c(=O)n(Cc4ccc(S(N)(=O)=O)c(F)c4)c32)n1 [Compound 98, 2-fluoro-4-((7-methoxy-2-oxo-2,3-dihydro-1H-imidazo[4,5-c][1,8]naphthyridin-1-yl)methyl)benzenesulfonamide]
– | 323 nM | > 6700 nM | 53% | 83 nM | COc1ccc2c(n1)nc(C)c1nc(C)n(Cc3ncc(S(N)(=O)=O)cn3)c12 [Compound 91a, 2-((7-methoxy-2,4-dimethyl-1H-imidazo[4,5-c][1,8]naphthyridin-1-yl)methyl)pyrimidine-5-sulfonamide]
– | 0.19 nM | 80 nM | 88% | 0.04 nM | COc1ccc2c(ncc3c2n(Cc2c(F)cc(S(N)(=O)=O)cc2F)c(=O)n3CC(F)(F)F)n1 [Compound 131, 3,5-difluoro-4-((7-methoxy-2-oxo-3-(2,2,2-trifluoroethyl)-2,3-dihydro-1H-imidazo[4,5-c][1,8]naphthyridin-1-yl)methyl)benzenesulfonamide]
– | 8.6 nM | 1300 nM | 80% | 2.3 nM | COc1ccc2c(ncc3ncn(Cc4ccc(S(N)(=O)=O)cc4C(F)(F)F)c32)n1 [Compound 67, 4-((7-methoxy-1H-imidazo[4,5-c][1,8]naphthyridin-1-yl)methyl)-3-(trifluoromethyl)benzenesulfonamide]
– | 1.7 nM | 610 nM | 86% | 0.49 nM | COc1ccc2c(ncc3ncn(Cc4ccc(S(N)(=O)=O)cc4Br)c32)n1 [Compound 68, 3-bromo-4-((7-methoxy-1H-imidazo[4,5-c][1,8]naphthyridin-1-yl)methyl)benzenesulfonamide]
– | 21 nM | 0.31 nM | 80% | 7.4 nM | COc1ccc2c(ncc3[nH]c(=O)n(Cc4c(F)cc(B(O)O)cc4F)c32)n1 [Compound 111, (3,5-difluoro-4-((7-methoxy-2-oxo-2,3-dihydro-1H-imidazo[4,5-c][1,8]naphthyridin-1-yl)methyl)phenyl)boronic acid]
0.66 nM | 1.4 nM | 80 nM | 88% | – | COc1ccc2c(ncc3cnn(Cc4ccc(S(N)(=O)=O)cn4)c32)n1 [Compound 135a, 6-((7-methoxy-1H-pyrazolo[4,3-c][1,8]naphthyridin-1-yl)methyl)pyridine-3-sulfonamide]
– | 8.4 nM | 2500 nM | 76% | 3.5 nM | COc1ccc2c(ncc3nc(CC(N)=O)n(Cc4ccc(S(N)(=O)=O)c(F)c4)c32)n1 [Compound 84, 2-(1-(3-fluoro-4-sulfamoylbenzyl)-7-methoxy-1H-imidazo[4,5-c][1,8]naphthyridin-2-yl)acetamide]
2.4 nM | 7.7 nM | 980 nM | 74% | – | COc1ccc2c(n1)nc(C)c1nc(C)n(Cc3cc(F)c(S(N)(=O)=O)cc3F)c12 [Compound 90, 2,5-difluoro-4-((7-methoxy-2,4-dimethyl-1H-imidazo[4,5-c][1,8]naphthyridin-1-yl)methyl)benzenesulfonamide]
– | 19 nM | > 6700 nM | 67% | 21 nM | CCC(=O)NS(=O)(=O)c1cc(F)c(Cn2c(=O)[nH]c3cnc4nc(OC)ccc4c32)c(F)c1 [Compound 105, sodium ((3,5-difluoro-4-((7-methoxy-2-oxo-2,3-dihydro-1H-imidazo[4,5-c][1,8]naphthyridin-1-yl)methyl)phenyl)sulfonyl)(propionyl)amide]
4 nM | 12 nM | 2200 nM | 81% | – | COc1ccc2c(n1)nc(C)c1ncn(Cc3ccc(S(N)(=O)=O)c(F)c3)c12 [Compound 88, 2-fluoro-4-((7-methoxy-4-methyl-1H-imidazo[4,5-c][1,8]naphthyridin-1-yl)methyl)benzenesulfonamide]
0.38 nM | 1.8 nM | 1800 nM | 68% | – | COc1ccc2c(ncc3cnn(Cc4ccc(S(N)(=O)=O)cc4)c32)n1 [Compound 116, 4-((7-methoxy-1H-pyrazolo[4,3-c][1,8]naphthyridin-1-yl)methyl)benzenesulfonamide]
0.56 nM | 1.1 nM | 810 nM | 78% | – | COc1ccc2c(ncc3[nH]c(=O)n(CC4CC(OS(N)(=O)=O)C4)c32)n1 (stereo not drawn) [Compound 97, 3-((7-methoxy-2-oxo-2,3-dihydro-1H-imidazo[4,5-c][1,8]naphthyridin-1-yl)methyl)cyclobutyl sulfamate]
